Each structure is given as a SMILES string. Active and inactive are the calls of the source. Cut-off read from the data, not from the text of the source, for most assays here: actives have a measured Kd and inactives only a lower limit.

The target in assay [1] is T1, Dual specificity mitogen-activated protein kinase kinase 6 (Homo sapiens, UniProt P52564).
T1 sequence (P52564 whole entry): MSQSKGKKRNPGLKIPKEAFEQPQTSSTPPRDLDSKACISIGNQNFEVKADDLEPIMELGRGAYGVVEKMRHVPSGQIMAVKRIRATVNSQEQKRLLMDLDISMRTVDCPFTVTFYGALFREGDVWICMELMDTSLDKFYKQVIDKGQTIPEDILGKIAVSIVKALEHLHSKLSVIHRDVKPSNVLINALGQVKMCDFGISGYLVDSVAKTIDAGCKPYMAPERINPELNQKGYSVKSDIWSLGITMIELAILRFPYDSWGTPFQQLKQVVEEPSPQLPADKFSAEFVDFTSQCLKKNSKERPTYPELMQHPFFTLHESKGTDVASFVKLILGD

In assay [2] the target is Proto-oncogene tyrosine-protein kinase receptor Ret (Homo sapiens, UniProt P07949).
Proto-oncogene tyrosine-protein kinase receptor Ret, sequence (P07949 whole entry): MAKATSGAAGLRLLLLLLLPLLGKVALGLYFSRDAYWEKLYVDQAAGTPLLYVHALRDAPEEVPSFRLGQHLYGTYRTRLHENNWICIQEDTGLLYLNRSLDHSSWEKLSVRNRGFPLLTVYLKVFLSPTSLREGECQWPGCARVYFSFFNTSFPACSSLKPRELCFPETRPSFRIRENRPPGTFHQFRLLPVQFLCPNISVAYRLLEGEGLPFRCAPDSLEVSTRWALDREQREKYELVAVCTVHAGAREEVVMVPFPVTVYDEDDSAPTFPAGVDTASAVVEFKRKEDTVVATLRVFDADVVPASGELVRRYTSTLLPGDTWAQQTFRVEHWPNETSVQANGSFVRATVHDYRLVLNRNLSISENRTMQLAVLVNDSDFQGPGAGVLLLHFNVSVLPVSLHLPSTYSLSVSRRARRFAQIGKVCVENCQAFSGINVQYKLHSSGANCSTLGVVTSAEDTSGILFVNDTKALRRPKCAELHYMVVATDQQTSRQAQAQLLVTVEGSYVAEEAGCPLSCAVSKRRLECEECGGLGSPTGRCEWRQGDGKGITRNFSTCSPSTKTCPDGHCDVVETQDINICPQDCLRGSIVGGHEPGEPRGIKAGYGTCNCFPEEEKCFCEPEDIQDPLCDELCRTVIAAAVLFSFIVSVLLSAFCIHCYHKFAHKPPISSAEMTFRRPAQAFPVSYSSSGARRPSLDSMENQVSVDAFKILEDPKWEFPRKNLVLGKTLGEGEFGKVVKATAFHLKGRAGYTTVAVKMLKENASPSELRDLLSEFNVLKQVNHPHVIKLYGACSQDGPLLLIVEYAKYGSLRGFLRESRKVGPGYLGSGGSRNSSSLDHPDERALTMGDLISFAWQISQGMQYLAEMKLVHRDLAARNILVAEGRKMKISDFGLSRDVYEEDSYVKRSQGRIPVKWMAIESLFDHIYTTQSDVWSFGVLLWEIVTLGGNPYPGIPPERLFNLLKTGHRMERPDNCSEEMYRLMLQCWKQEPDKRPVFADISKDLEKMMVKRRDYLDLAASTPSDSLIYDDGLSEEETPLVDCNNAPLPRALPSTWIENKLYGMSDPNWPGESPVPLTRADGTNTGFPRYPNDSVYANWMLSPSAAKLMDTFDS
The target of assay [3] is T2, Serine/threonine-protein kinase TAO2 (Homo sapiens, UniProt Q9UL54).
T2 sequence (Q9UL54 whole entry): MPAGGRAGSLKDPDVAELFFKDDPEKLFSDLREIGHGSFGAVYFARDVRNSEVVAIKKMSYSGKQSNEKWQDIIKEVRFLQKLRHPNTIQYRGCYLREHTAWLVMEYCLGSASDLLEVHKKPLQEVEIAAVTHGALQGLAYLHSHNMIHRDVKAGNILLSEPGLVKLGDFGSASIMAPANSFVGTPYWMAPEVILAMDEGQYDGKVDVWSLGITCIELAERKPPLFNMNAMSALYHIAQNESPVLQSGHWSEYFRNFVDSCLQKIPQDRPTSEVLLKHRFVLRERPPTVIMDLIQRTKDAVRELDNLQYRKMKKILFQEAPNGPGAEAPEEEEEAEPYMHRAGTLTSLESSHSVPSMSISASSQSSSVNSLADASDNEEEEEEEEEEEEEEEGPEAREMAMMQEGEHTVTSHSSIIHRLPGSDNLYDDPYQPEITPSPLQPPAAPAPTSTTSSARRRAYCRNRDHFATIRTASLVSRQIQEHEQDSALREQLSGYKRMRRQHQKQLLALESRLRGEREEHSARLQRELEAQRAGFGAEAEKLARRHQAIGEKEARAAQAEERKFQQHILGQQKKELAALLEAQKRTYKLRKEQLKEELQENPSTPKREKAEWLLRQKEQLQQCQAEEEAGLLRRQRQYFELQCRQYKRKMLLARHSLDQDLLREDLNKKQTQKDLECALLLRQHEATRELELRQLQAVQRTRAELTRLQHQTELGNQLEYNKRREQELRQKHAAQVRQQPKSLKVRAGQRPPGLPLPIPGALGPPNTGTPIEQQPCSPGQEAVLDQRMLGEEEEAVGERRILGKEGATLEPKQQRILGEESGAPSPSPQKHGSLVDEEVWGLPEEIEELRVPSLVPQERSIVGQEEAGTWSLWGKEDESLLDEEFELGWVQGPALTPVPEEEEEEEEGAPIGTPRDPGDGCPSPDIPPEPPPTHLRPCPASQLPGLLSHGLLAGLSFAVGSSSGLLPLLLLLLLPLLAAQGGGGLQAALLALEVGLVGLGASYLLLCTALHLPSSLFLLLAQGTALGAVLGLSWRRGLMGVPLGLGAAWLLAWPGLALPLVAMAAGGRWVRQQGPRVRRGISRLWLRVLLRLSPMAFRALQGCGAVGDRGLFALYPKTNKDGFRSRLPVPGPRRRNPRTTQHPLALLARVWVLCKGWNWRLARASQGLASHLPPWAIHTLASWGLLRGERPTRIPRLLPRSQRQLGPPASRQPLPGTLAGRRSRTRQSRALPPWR

Assay [4] addresses T3, Serine/threonine-protein kinase TAO3 (Homo sapiens, UniProt Q9H2K8).
T3 sequence (Q9H2K8 whole entry): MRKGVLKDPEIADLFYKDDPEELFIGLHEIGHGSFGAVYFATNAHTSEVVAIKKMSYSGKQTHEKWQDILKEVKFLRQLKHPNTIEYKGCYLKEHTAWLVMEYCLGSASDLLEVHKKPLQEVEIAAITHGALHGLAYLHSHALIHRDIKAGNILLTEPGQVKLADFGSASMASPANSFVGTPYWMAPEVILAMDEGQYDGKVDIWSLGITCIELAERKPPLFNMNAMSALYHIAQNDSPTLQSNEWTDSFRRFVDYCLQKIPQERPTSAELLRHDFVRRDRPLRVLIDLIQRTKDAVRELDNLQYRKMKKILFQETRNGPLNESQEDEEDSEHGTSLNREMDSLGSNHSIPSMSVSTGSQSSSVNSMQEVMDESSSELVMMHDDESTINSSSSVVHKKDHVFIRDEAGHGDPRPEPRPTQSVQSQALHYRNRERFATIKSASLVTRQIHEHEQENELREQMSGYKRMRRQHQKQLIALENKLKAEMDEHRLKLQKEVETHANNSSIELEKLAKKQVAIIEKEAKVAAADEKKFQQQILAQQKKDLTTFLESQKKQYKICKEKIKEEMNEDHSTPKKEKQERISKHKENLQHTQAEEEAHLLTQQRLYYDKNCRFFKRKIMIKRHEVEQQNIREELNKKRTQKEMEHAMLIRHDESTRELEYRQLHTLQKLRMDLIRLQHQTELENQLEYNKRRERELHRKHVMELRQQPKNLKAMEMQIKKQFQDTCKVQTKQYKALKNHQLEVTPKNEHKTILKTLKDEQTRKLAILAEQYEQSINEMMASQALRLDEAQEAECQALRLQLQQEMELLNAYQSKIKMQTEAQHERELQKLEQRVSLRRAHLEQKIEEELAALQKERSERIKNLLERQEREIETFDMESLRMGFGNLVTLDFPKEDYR

The target of another assay is Wee1-like protein kinase (Homo sapiens, UniProt P30291).
Wee1-like protein kinase, sequence (P30291 whole entry): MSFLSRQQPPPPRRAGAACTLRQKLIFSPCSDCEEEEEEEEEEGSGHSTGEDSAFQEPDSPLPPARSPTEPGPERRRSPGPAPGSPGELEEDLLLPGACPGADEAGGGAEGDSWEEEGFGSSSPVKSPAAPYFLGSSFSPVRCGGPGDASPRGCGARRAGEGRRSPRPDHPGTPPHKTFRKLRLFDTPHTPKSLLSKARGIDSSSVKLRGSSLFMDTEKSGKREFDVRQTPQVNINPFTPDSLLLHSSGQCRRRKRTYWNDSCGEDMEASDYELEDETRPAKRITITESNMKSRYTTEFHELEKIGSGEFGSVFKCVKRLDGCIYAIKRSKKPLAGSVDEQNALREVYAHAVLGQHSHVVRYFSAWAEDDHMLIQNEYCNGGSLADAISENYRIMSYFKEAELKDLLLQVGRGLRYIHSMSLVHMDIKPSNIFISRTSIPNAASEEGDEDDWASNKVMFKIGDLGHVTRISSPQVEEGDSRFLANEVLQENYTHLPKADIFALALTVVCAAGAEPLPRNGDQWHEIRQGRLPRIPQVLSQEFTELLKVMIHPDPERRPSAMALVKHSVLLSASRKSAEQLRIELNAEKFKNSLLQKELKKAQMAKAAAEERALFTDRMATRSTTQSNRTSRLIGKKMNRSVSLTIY
Note: in the data inactive means no Kd found up to 30 µM.

`Cn1cc(-c2cnc3ccc4ccc(CS(=O)(=O)NCc5ccccn5)cc4c(=O)c3c2)cn1` [MK-8033]: the Kd (in assay [1]; in assay [2]; in assay [3]; in assay [4]; at Wee1-like protein kinase) was > 30 µM (inactive) in each case.

For the molecule `FC(F)(F)c1ccc(/C=C/c2nc(COc3ccc(CCCCn4ccnn4)cc3)co2)cc1` [MUBRITINIB], the Kd (in assay [1]; in assay [2]; in assay [3]; in assay [4]; on Wee1-like protein kinase) was > 30 µM (inactive) each time.

Turning to `COc1ncc(-c2ccc3nccc(-c4ccnnc4)c3c2)cc1NS(=O)(=O)c1ccc(F)cc1F` [OMIPALISIB], the Kd (in assay [1]; in assay [2]; in assay [3]; in assay [4]; at Wee1-like protein kinase) was > 30 µM (inactive) throughout.

Take `CCCCCCCCCCCCCCCCCCOP(=O)([O-])OC1CC[N+](C)(C)CC1` [PERIFOSINE]: the Kd (in assay [1]; in assay [2]; in assay [3]; in assay [4]; at Wee1-like protein kinase) was > 30 µM (inactive) each time.

Take `Cc1nc(Nc2n[nH]c3c2CN(C(=O)N[C@H](CN(C)C)c2ccccc2)C3(C)C)c2sccc2n1` [PF-03758309]: the Kd in assay [1] was > 30 µM (inactive); in assay [2] it was 0.728 µM (active); in assay [3] it was > 30 µM (inactive); in assay [4], > 30 µM (inactive); at Wee1-like protein kinase, 2.77 µM (active).

In the case of `Cc1cnc(NC(=O)Nc2cc(Br)c(C)cc2OC[C@@H]2CNCCO2)cn1` [RABUSERTIB], the Kd (in assay [1]; in assay [2]; in assay [3]; in assay [4]; on Wee1-like protein kinase) was > 30 µM (inactive) each time.

On to `CO[C@H]1C[C@@H]2CC[C@@H](C)[C@@](O)(O2)C(=O)C(=O)N2CCCC[C@H]2C(=O)O[C@H]([C@H](C)C[C@@H]2CC[C@@H](OP(C)(C)=O)[C@H](OC)C2)CC(=O)[C@H](C)/C=C(\C)[C@@H](O)[C@@H](OC)C(=O)[C@H](C)C[C@H](C)/C=C/C=C/C=C/1C` [RIDAFOROLIMUS], for which the Kd (in assay [1]; in assay [2]; in assay [3]; in assay [4]; at Wee1-like protein kinase) was > 30 µM (inactive) throughout.

For `N#CC1(c2ccc(NC(=O)c3cccnc3NCc3ccncc3)cc2)CCCC1` [RIVOCERANIB], the Kd in assay [1] is > 30 µM (inactive); in assay [2], 0.111 µM (active); in assay [3] it was > 30 µM (inactive); in assay [4] it was > 30 µM (inactive); on Wee1-like protein kinase, > 30 µM (inactive).

As to `O=c1[nH]ccc2cc(OC3CCNCC3)ccc12` [SAR-407899 FREE BASE], the Kd (in assay [1]; in assay [2]; in assay [3]; in assay [4]; at Wee1-like protein kinase) was > 30 µM (inactive) throughout.

Consider `CN1CCN(CCOc2cc(OC3CCOCC3)c3c(Nc4c(Cl)ccc5c4OCO5)ncnc3c2)CC1` [SARACATINIB], for which the Kd in assay [1] is > 30 µM (inactive); in assay [2] it was 0.178 µM; in assay [3], > 30 µM (inactive); in assay [4], > 30 µM (inactive); on Wee1-like protein kinase, > 30 µM (inactive).

Regarding `Cn1cc(-c2cnn3c(N)c(Br)c([C@@H]4CCCNC4)nc23)cn1` [SCH-900776], the Kd in assay [1] was > 30 µM (inactive); in assay [2], 2.55 µM; in assay [3], > 30 µM (inactive); in assay [4], > 30 µM (inactive); at Wee1-like protein kinase, > 30 µM (inactive).

Regarding `CO[C@H]1C[C@@H]2CC[C@@H](C)[C@@](O)(O2)C(=O)C(=O)N2CCCC[C@H]2C(=O)O[C@H]([C@H](C)C[C@@H]2CC[C@@H](O)[C@H](OC)C2)CC(=O)[C@H](C)/C=C(\C)[C@@H](O)[C@@H](OC)C(=O)[C@H](C)C[C@H](C)/C=C/C=C/C=C/1C` [SIROLIMUS], the Kd (in assay [1]; in assay [2]; in assay [3]; in assay [4]; at Wee1-like protein kinase) was > 30 µM (inactive) each time.

As to `CCS(=O)(=O)c1cccc(-c2cc(C(=O)NC3CCN(C)CC3)c(C)c3[nH]c4ncc(C)cc4c23)c1` [TAK-901], the Kd in assay [1] is > 30 µM (inactive); in assay [2] it was 0.111 µM (active); in assay [3], > 30 µM (inactive); in assay [4] it was > 30 µM (inactive); on Wee1-like protein kinase, > 30 µM (inactive).

For `CO[C@H]1C[C@@H]2CC[C@@H](C)[C@@](O)(O2)C(=O)C(=O)N2CCCC[C@H]2C(=O)O[C@H]([C@H](C)C[C@@H]2CC[C@@H](OC(=O)C(C)(CO)CO)[C@H](OC)C2)CC(=O)[C@H](C)/C=C(\C)[C@@H](O)[C@@H](OC)C(=O)[C@H](C)C[C@H](C)/C=C/C=C/C=C/1C` [TEMSIROLIMUS], the Kd (in assay [1]; in assay [2]; in assay [3]; in assay [4]; at Wee1-like protein kinase) was > 30 µM (inactive) in each case.

As to `COc1cc2c(Nc3ccc(Cl)c(Cl)c3F)ncnc2cc1OC[C@@H]1C[C@@H]2CN(C)C[C@@H]2C1` [TESEVATINIB], the Kd in assay [1] is > 30 µM (inactive); in assay [2], 0.064 µM (active); in assay [3], > 30 µM (inactive); in assay [4], > 30 µM (inactive); on Wee1-like protein kinase, > 30 µM (inactive).

For the molecule `O=C(Cc1ccc(-c2ccc(OCCN3CCOCC3)cc2)cn1)NCc1ccccc1` [TIRBANIBULIN], the Kd (in assay [1]; in assay [2]; in assay [3]; in assay [4]; at Wee1-like protein kinase) was > 30 µM (inactive) throughout.

As to `O=C1NC(=O)[C@@H](c2cn3c4c(cccc24)CCC3)[C@@H]1c1c[nH]c2ccccc12` [TIVANTINIB], the Kd (in assay [1]; in assay [2]; in assay [3]; in assay [4]; on Wee1-like protein kinase) was > 30 µM (inactive) throughout.

(Values after ChEMBL document CHEMBL3991601, “The target landscape of clinical kinase drugs” (Science, 2017).)
